This passage reports IC50 results from patent US12410208B2, “(2-acetamidyl)thio-beta-D-galactopyranoside derivatives” (Idorsia Pharmaceuticals Ltd, priority 2020, dated 2025).

Read-outs that look alike come from different tables or passages of the source.

In test [1] the target is human Gal-1 (hGal-1) (Homo sapiens, UniProt P09382). Nature of the test: Competitive binding assay: biotinylated hGal-1 binding to microplate-adsorbed asialofetuin (ASF), spectrophotometric. To be noted: hGal-1 binding to asialofetuin; Table 15; R and S epimers of selected Examples also listed; read-out: IC50 (Galectin-1 inhibition). The method in brief: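 Biotinylated hGal-1 (300-1000 ng/mL) incubated with compound on asialofetuin-coated plates 3 hours at 4 °C, washed, then streptavidin-peroxidase (80 ng/mL) 1 hour at 4 °C. ABTS substrate read spectrophotometrically; IC50 reported as mean of several measurements.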

For test [2], the target named is biotinylated human Gal-3 (hGal-3) (Homo sapiens, UniProt P17931). The test can be described thus: Competitive binding assay: biotinylated hGal-3 binding to microplate-adsorbed asialofetuin (ASF), spectrophotometric. The method in brief: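 Competitive binding of biotinylated hGal-3 to plate-adsorbed asialofetuin was measured with serially diluted compounds over 3 h at 4° C. Bound protein was detected with streptavidin-peroxidase and ABTS substrate by absorbance. IC50 values are means of several measurements.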

Where [3] appears, read: Gal-3 inhibition, Table 5, read-out: IC50.
Setting [4] is: Table 8, hGal-3, read-out: IC50 (Gal-3 inhibition).
Setting [5] is: Gal-3 inhibition, Table 4, read-out: IC50.

Sequence of human Gal-1 (hGal-1) (P09382 whole entry): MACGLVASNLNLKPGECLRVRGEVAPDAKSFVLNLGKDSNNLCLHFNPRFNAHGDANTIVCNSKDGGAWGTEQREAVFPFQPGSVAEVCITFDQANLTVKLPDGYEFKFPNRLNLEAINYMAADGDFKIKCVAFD
Sequence of biotinylated human Gal-3 (hGal-3) (P17931 whole entry): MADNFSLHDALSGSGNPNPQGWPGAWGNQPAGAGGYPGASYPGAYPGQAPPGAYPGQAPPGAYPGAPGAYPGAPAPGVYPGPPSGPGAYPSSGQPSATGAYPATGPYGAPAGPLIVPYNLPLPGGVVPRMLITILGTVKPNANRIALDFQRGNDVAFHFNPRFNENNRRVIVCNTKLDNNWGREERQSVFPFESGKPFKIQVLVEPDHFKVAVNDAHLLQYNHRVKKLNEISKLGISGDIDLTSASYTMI

What is called IC50 is the point on the concentration scale where inhibition reaches its midpoint. For `CN(CC(F)(F)F)C(=O)C(S[C@@H]1O[C@H](CO)[C@H](O)[C@H](n2cc(-c3cc(F)c(F)c(F)c3)nn2)[C@H]1O)C1(O)CCC1` (stereo partly drawn) [Example 2.34.219., 2-(((2S,3R,4S,5R,6R)-3,5-Dihydroxy-6-(hydroxymethyl)-4-(4-(3,4,5-trifluorophenyl)-1H-1,2,3-triazol-1-yl)tetrahydro-2H-pyran-2-yl)thio)-2-(1-hydroxycyclobutyl)-N-methyl-N-(2,2,2-trifluoroethyl)acetamide], the figures for the concentration for half-maximal inhibition (IC50) in test [1] and in test [2] (setting [3]) were 640 nM and 260 nM, respectively.
For `CCN(CC1CC1)C(=O)C(S[C@@H]1O[C@H](CO)[C@H](O)[C@H](n2cc(-c3cc(F)c(F)c(F)c3)nn2)[C@H]1O)C1(O)CCOCC1` (stereo partly drawn) [Example 2.41.236., N-(Cyclopropylmethyl)-2-(((2S,3R,4S,5R,6R)-3,5-dihydroxy-6-(hydroxymethyl)-4-(4-(3,4,5-trifluorophenyl)-1H-1,2,3-triazol-1-yl)tetrahydro-2H-pyran-2-yl)thio)-N-ethyl-2-(4-hydroxytetrahydro-2H-pyran-4-yl)acetamide], in that order: 9900 nM and 4470 nM.
As to `CO[C@@H]1[C@@H](n2cc(-c3cc(F)c(F)c(F)c3)nn2)[C@@H](O)[C@@H](CO)O[C@H]1S[C@@H](C(=O)N1CCC(F)(F)CC1)C1(O)CCC2(CCOCC2)CC1` [Example 2.72.226R.I., (R)-1-(4,4-Difluoropiperidin-1-yl)-2-(((2S,3R,4S,5R,6R)-5-hydroxy-6-(hydroxymethyl)-3-methoxy-4-(4-(3,4,5-trifluorophenyl)-1H-1,2,3-triazol-1-yl)tetrahydro-2H-pyran-2-yl)thio)-2-(9-hydroxy-3-oxaspiro[5.5]undecan-9-yl)ethan-1-one], the IC50 in test [1] turned out to be 39600 nM; in test [2] (Table 13, hGal-3, read-out: IC50 (Gal-3 inhibition)) it was 14900 nM.
Turning to `CCN(C)C(=O)[C@H](S[C@@H]1O[C@H](CO)[C@H](O)[C@H](n2cc(-c3cc(F)c(F)c(F)c3)nn2)[C@H]1O)C1(O)CCN(C(=O)NC2CC2)CC1` [Example 2.49.203R., (R)-N-Cyclopropyl-4-(1-(((2S,3R,4S,5R,6R)-3,5-dihydroxy-6-(hydroxymethyl)-4-(4-(3,4,5-trifluorophenyl)-1H-1,2,3-triazol-1-yl)tetrahydro-2H-pyran-2-yl)thio)-2-(ethyl(methyl)amino)-2-oxoethyl)-4-hydroxypiperidine-1-carboxamide], the IC50 in test [1] came to 4430 nM; in test [2] (setting [4]), 2650 nM.
For the molecule `CN(CC1CC1)C(=O)[C@@H](S[C@@H]1O[C@H](CO)[C@H](O)[C@H](n2cc(-c3cc(F)c(F)c(F)c3)nn2)[C@H]1O)C1(O)CCC(F)(F)CC1` [Example 2.44.218S., (S)-N-(Cyclopropylmethyl)-2-(4,4-difluoro-1-hydroxycyclohexyl)-2-(((2S,3R,4S,5R,6R)-3,5-dihydroxy-6-(hydroxymethyl)-4-(4-(3,4,5-trifluorophenyl)-1H-1,2,3-triazol-1-yl)tetrahydro-2H-pyran-2-yl)thio)-N-methylacetamide], the IC50 turned out to be 40 nM in test [1] and 50 nM in test [2] (setting [3]).
`CN(CCC1CC1)C(=O)C(S[C@@H]1O[C@H](CO)[C@H](O)[C@H](n2cc(-c3cc(F)c(F)c(F)c3)nn2)[C@H]1O)C1(O)CCOCC1` (stereo partly drawn) [Example 2.41.217., N-(2-Cyclopropylethyl)-2-(((2S,3R,4S,5R,6R)-3,5-dihydroxy-6-(hydroxymethyl)-4-(4-(3,4,5-trifluorophenyl)-1H-1,2,3-triazol-1-yl)tetrahydro-2H-pyran-2-yl)thio)-2-(4-hydroxytetrahydro-2H-pyran-4-yl)-N-methylacetamide]: the results for the IC50 in test [1] and in test [2] (setting [5]) were 220 nM and 60 nM, respectively.
Consider `CCN(C)C(=O)C(S[C@@H]1O[C@H](CO)[C@H](O)[C@H](n2cc(-c3cc(F)c(F)c(F)c3)nn2)[C@H]1O)C1(O)CCOCC1` (stereo partly drawn) [Example 2.41.203., 2-(((2S,3R,4S,5R,6R)-3,5-Dihydroxy-6-(hydroxymethyl)-4-(4-(3,4,5-trifluorophenyl)-1H-1,2,3-triazol-1-yl)tetrahydro-2H-pyran-2-yl)thio)-N-ethyl-2-(4-hydroxytetrahydro-2H-pyran-4-yl)-N-methylacetamide], for which the IC50 was determined as 420 nM in test [1] and 90 nM in test [2] (setting [3]).
For `CN(C(=O)C(S[C@@H]1O[C@H](CO)[C@H](O)[C@H](n2cc(-c3cc(F)c(F)c(F)c3)nn2)[C@H]1O)C1(O)CCOCC1)C1COC1` (stereo partly drawn) [Example 2.41.235., 2-(((2S,3R,4S,5R,6R)-3,5-Dihydroxy-6-(hydroxymethyl)-4-(4-(3,4,5-trifluorophenyl)-1H-1,2,3-triazol-1-yl)tetrahydro-2H-pyran-2-yl)thio)-2-(4-hydroxytetrahydro-2H-pyran-4-yl)-N-methyl-N-(oxetan-3-yl)acetamide], in that order: 90 nM and 60 nM.
As for `CCN(C)C(=O)C(S[C@@H]1O[C@H](CO)[C@H](O)[C@H](n2cc(-c3cc(F)cc(Cl)c3)nn2)[C@H]1O)C1(O)CCOCC1` (stereo partly drawn) [Example 13.41.203., 2-(((2S,3R,4S,5R,6R)-4-(4-(3-Chloro-5-fluorophenyl)-1H-1,2,3-triazol-1-yl)-3,5-dihydroxy-6-(hydroxymethyl)tetrahydro-2H-pyran-2-yl)thio)-N-ethyl-2-(4-hydroxytetrahydro-2H-pyran-4-yl)-N-methylacetamide], the IC50 in test [1] turned out to be 130 nM; in test [2] (Table 11, hGal-3, read-out: IC50 (Gal-3 inhibition)), 80 nM.
Take `CCN(CC1CCOCC1)C(=O)C(S[C@@H]1O[C@H](CO)[C@H](O)[C@H](n2cc(-c3cc(F)c(F)c(F)c3)nn2)[C@H]1O)C1(O)CCOCC1` (stereo partly drawn) [Example 2.41.214., 2-(((2S,3R,4S,5R,6R)-3,5-Dihydroxy-6-(hydroxymethyl)-4-(4-(3,4,5-trifluorophenyl)-1H-1,2,3-triazol-1-yl)tetrahydro-2H-pyran-2-yl)thio)-N-ethyl-2-(4-hydroxytetrahydro-2H-pyran-4-yl)-N-((tetrahydro-2H-pyran-4-yl)methyl)acetamide]: the figures for the IC50 in test [1] and in test [2] (setting [5]) were 120 nM and 30 nM, respectively.
As to `CO[C@@H]1[C@@H](n2cc(-c3cc(F)c(F)c(F)c3)nn2)[C@@H](O)[C@@H](CO)O[C@H]1SC(C(=O)NCCC(C)(C)C)C1(O)CCC(F)(F)CC1` (stereo partly drawn) [Example 2.44.252.I., 2-(4,4-Difluoro-1-hydroxycyclohexyl)-N-(3,3-dimethylbuty1)-2-(((2S,3R,4S,5R,6R)-5-hydroxy-6-(hydroxymethyl)-3-methoxy-4-(4-(3,4,5-trifluorophenyl)-1H-1,2,3-triazol-1-yl)tetrahydro-2H-pyran-2-yl)thio)acetamide], the IC50 was determined as 830 nM in test [1] and 320 nM in test [2] (Table 12, hGal-3, read-out: IC50 (Gal-3 inhibition)).
Regarding “(S)-2-(4,4-Difluoro-1-hydroxycyclohexyl)-2-(((2S,3R,4S,5R,6R)-3,5-dihydroxy-6-(hydroxymethyl)-4-(4-(3,4,5-trifluorophenyl)-1H-1,2,3-triazol-1-yl)tetrahydro-2H-pyran-2-yl)thio)-1-(piperidin-1-yl)ethan-1-one [Example 2.44.208S.]”, the IC50 stood at 30 nM in test [1] and 20 nM in test [2] (setting [3]).
For the molecule `CCN(C)C(=O)C(S[C@@H]1O[C@H](CO)[C@H](O)[C@H](n2cc(-c3cc(F)c(F)c(F)c3)nn2)[C@H]1O)C1(O)CCC1` (stereo partly drawn) [Example 2.34.203., 2-(((2S,3R,4S,5R,6R)-3,5-Dihydroxy-6-(hydroxymethyl)-4-(4-(3,4,5-trifluorophenyl)-1H-1,2,3-triazol-1-yl)tetrahydro-2H-pyran-2-yl)thio)-N-ethyl-2-(1-hydroxycyclobutyl)-N-methylacetamide], the IC50 turned out to be 640 nM in test [1] and 400 nM in test [2] (setting [3]).
On the same counts, the results for `CN(CC(C)(C)C)C(=O)C(S[C@@H]1O[C@H](CO)[C@H](O)[C@H](n2cc(-c3cc(F)c(F)c(F)c3)nn2)[C@H]1O)C1(O)CCCC1` (stereo partly drawn) [Example 2.38.228., 2-(((2S,3R,4S,5R,6R)-3,5-Dihydroxy-6-(hydroxymethyl)-4-(4-(3,4,5-trifluorophenyl)-1H-1,2,3-triazol-1-yl)tetrahydro-2H-pyran-2-yl)thio)-2-(1-hydroxycyclopentyl)-N-methyl-N-neopentylacetamide] are 170 nM and 150 nM.
As for `O=C(C(S[C@@H]1O[C@H](CO)[C@H](O)[C@H](n2cc(-c3cc(F)c(F)c(F)c3)nn2)[C@H]1O)C1(O)CCCC1)N1CCC1` (stereo partly drawn) [Example 2.38.206., 1-(Azetidin-1-yl)-2-(((2S,3R,4S,5R,6R)-3,5-dihydroxy-6-(hydroxymethyl)-4-(4-(3,4,5-trifluorophenyl)-1H-1,2,3-triazol-1-yl)tetrahydro-2H-pyran-2-yl)thio)-2-(1-hydroxycyclopentyl)ethan-1-one], the IC50 in test [1] amounted to 770 nM; in test [2] (setting [3]) it was 230 nM.
As to `CN(C(=O)C(S[C@@H]1O[C@H](CO)[C@H](O)[C@H](n2cc(-c3cc(F)c(F)c(F)c3)nn2)[C@H]1O)C1(O)CCOCC1)c1ccccc1` (stereo partly shown) [Example 2.41.231.], the IC50 in test [1] worked out at 80 nM; in test [2] (Table 9, hGal-3, read-out: IC50 (Gal-3 inhibition)), 110 nM.
In the case of `CCN(C)C(=O)[C@H](S[C@@H]1O[C@H](CO)[C@H](O)[C@H](n2cc(-c3cc(F)c(F)c(F)c3)nn2)[C@H]1O)C1(O)CCN(S(C)(=O)=O)CC1` [Example 2.47.203R., (R)-2-(((2S,3R,4S,5R,6R)-3,5-Dihydroxy-6-(hydroxymethyl)-4-(4-(3,4,5-trifluorophenyl)-1H-1,2,3-triazol-1-yl)tetrahydro-2H-pyran-2-yl)thio)-N-ethyl-2-(4-hydroxy-1-(methylsulfonyl)piperidin-4-yl)-N-methylacetamide], the values for the IC50 in test [1] and in test [2] (setting [4]) were 33900 nM and 6770 nM, respectively.
